Experimental data published in PubChem BioAssay AID651685 (The Scripps Research Institute Molecular Screening Center, 2012).
Active and inactive are the calls of the source. No rule for the calls is given here.

Target: Mu-type opioid receptor (Homo sapiens) (UniProt P35372)
Assay: mu-delta opioid heterodimer formation enhancers – cell-based, luminescence, dose response, late-stage follow-up (AID 651685)
Conditions: cells, OPRM1-OPRD1 heterodimerization, luminescence complementation

Chain of Mu-type opioid receptor (Homo sapiens) (P35372 whole entry, looked up): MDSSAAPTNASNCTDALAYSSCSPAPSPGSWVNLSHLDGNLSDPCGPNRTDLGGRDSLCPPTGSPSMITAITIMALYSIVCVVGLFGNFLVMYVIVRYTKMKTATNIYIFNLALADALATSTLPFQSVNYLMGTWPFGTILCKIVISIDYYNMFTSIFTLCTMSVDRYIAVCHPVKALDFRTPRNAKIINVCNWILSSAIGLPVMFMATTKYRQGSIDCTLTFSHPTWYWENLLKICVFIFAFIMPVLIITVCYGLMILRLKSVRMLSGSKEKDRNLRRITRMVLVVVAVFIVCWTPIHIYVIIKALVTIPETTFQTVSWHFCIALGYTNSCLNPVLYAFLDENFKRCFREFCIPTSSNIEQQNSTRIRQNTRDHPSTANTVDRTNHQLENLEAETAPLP

| Structure (SMILES) | EC50 |
| --- | --- |
| CCOC(=O)C1(CCOc2ccccc2)CCN(Cc2ccc(O)c(OC)c2)CC1 | inactive |
| CCOC(=O)C1(CCc2ccccc2)CCN(Cc2ccc(NC(C)=O)cc2)CC1 | 0.403 µM |
| CCOC(=O)C1(CCc2ccccc2)CCN(Cc2ccc(OC(C)C)c(C#N)c2)CC1 | > 40 µM (inactive) |
| CCOC(=O)C1(Cc2ccccc2)CCN(Cc2cccn2-c2nccs2)CC1 | > 40 µM (inactive) |
| CCOC(=O)C1(Cc2ccccc2)CCN(Cc2cccn2-c2cccnc2)CC1 | > 40 µM (inactive) |
| CCOC(=O)C1(CC2CCCCO2)CCN(Cc2c(C)cc(C)cc2-n2cccn2)CC1 (stereo unspecified) | 0.901 µM |
| CCOC(=O)C1(CCOc2ccccc2)CCN(Cc2cccn2-c2cccnc2)CC1 | 4.4 µM |
| CCOC(=O)C1(CCc2ccccc2)CCN(Cc2cc(C)cc(C)c2)CC1 | > 40 µM (inactive) |
| CCOC(=O)C1(CCCc2ccccc2)CCN(Cc2cnn(C)c2)CC1 | 8.9 µM |
| CCOC(=O)C1(CCc2ccccc2)CCN(Cc2ccccc2C)CC1 | 7 µM |
| OCC1(CCc2ccccc2)CCN(Cc2cc(F)ccc2-n2cccn2)CC1 | > 40 µM (inactive) |
